Data reported in ChEMBL document CHEMBL1201862, “PubChem BioAssay data set” (2004).
Active and inactive are the calls of the source.

What was measured:
[1] = molecular target: T1, Botulinum neurotoxin type A (Clostridium botulinum (strain Hall / ATCC 3502 / NCTC 13319 / Type A), UniProt P0DPI1); assay: High-throughput multiplex microsphere dose response for inhibitors of toxin protease, specifically Botulinum neurotoxin light chain A protease, compounds from Cherry Pick 02.; assay type: functional; conditions: read-out: EC50_MICROM
T1 sequence (P0DPI1 2-448 limits assumed): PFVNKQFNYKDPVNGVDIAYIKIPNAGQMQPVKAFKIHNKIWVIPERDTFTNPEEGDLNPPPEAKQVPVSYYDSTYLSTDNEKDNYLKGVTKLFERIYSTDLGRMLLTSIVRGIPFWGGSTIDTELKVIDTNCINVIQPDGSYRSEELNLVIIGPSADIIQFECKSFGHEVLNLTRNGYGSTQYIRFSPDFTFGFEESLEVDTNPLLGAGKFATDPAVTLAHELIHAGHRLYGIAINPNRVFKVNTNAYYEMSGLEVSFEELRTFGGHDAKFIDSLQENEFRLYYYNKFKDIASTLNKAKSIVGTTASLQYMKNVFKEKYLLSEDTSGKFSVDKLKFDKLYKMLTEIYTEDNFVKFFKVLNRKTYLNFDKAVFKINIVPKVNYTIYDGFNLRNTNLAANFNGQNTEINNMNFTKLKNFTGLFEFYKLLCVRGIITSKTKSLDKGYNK

[2] = molecular target: T1, Botulinum neurotoxin type A; assay: High-throughput multiplex microsphere dose response for inhibitors of toxin protease, specifically Botulinum neurotoxin light chain A protease, compounds from Cherry Pick 01.; assay type: functional; conditions: read-out: EC50_MICROM
Lethal factor = Lethal factor (Bacillus anthracis, UniProt P15917); assay: High-throughput multiplex microsphere dose response for inhibitors of toxin protease, specifically Lethal Factor protease, compounds from Cherry Pick 02.; assay type: functional; conditions: read-out: EC50_MICROM
[3] = molecular target: Botulinum neurotoxin type F (Clostridium botulinum, UniProt P30996); assay: High-throughput multiplex microsphere dose response for inhibitors of toxin protease, specifically Botulinum neurotoxin light chain F protease, compounds from Cherry Pick 02.; assay type: functional; conditions: read-out: EC50_MICROM
Aurora kinase B = Aurora kinase B (Homo sapiens, UniProt Q96GD4); assay type: functional
[4] = molecular target: Macrophage colony-stimulating factor 1 receptor (Homo sapiens, UniProt P07333); assay type: functional;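 note: value comes from the Navigating the Kinome screening panel, CSF1R member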
[5] = molecular target: Serine/threonine-protein kinase D3 (Homo sapiens, UniProt O94806); assay type: functional;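 note: determined within a kinase panel screen, with PRKCN as the panel member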
Focal adhesion kinase 1 = Focal adhesion kinase 1 (Homo sapiens, UniProt Q05397); assay type: functional;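 note: measured as one member of a kinome panel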
Aurora kinase A = Aurora kinase A (Homo sapiens, UniProt O14965); assay type: functional;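 note: value from the Navigating the Kinome kinase panel profiling, panel entry STK6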
[6] = molecular target: cAMP-dependent protein kinase catalytic subunit alpha (Homo sapiens, UniProt P17612); assay type: functional
[7] = molecular target: G protein-coupled receptor kinase 5 (Homo sapiens, UniProt P34947); assay: Navigating the Kinome. Panel member name: GPRK5; assay type: functional
[8] = molecular target: Dual specificity protein kinase CLK4 (Homo sapiens, UniProt Q9HAZ1); assay type: functional
[9] = molecular target: Cyclin-dependent kinase 7 (Homo sapiens, UniProt P50613); assay type: functional;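 note: value comes from a kinome-wide kinase profiling panel in which CDK7 is one member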
[10] = molecular target: Leukocyte tyrosine kinase receptor (Homo sapiens, UniProt P29376); assay: Navigating the Kinome. Panel member name: LTK; assay type: functional
[11] = molecular target: Cyclin-dependent kinase 5 (Homo sapiens, UniProt Q00535); assay type: functional;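 note: CDK5 measured as one member of a kinase profiling panel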
[12] = molecular target: cAMP-dependent protein kinase catalytic subunit PRKX (Homo sapiens, UniProt P51817); assay type: functional
[13] = molecular target: Protein kinase C theta type (Homo sapiens, UniProt Q04759); assay: Navigating the Kinome. Panel member name: PRKCQ; assay type: functional
[14] = molecular target: Hepatocyte growth factor receptor (Homo sapiens, UniProt P08581); assay type: functional;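 note: kinase panel profiling across the kinome, with MET as the panel member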
Sequence of Hepatocyte growth factor receptor (P08581 whole entry): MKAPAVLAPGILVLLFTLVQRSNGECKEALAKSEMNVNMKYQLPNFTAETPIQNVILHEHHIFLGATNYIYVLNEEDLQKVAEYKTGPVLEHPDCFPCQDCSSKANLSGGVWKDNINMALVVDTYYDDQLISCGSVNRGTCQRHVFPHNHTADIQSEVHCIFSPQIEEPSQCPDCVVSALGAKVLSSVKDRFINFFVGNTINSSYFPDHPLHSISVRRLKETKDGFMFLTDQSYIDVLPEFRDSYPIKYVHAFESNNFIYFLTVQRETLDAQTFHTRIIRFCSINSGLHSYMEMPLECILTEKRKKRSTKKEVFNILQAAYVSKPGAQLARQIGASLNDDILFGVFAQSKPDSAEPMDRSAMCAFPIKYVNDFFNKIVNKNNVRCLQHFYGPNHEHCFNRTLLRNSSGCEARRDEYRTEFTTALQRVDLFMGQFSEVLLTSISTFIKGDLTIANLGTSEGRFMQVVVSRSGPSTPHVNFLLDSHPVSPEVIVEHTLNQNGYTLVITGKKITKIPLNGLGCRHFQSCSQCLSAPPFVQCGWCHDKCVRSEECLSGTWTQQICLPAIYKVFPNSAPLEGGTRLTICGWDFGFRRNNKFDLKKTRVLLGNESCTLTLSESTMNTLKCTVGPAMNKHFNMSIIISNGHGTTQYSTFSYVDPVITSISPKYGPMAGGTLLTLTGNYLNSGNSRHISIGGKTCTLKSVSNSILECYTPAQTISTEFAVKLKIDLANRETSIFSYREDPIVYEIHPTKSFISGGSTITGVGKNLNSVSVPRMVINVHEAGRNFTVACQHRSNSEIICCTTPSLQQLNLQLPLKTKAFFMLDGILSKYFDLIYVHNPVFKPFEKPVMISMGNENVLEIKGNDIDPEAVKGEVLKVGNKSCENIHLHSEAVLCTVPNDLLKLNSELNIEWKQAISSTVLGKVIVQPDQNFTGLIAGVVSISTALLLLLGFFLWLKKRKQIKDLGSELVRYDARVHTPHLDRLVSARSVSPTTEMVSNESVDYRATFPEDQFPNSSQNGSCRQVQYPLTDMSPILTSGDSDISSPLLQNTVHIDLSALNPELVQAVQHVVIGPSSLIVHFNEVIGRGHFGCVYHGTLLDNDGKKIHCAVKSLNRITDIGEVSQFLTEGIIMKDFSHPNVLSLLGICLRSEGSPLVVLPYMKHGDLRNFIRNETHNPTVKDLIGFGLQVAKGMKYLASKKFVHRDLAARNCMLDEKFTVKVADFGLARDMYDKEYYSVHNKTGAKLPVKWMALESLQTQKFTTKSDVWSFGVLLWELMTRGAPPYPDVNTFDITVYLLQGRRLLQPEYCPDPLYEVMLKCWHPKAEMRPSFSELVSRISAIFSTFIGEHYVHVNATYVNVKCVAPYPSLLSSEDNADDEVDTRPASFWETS

[15] = molecular target: Dual specificity tyrosine-phosphorylation-regulated kinase 1B (Homo sapiens, UniProt Q9Y463); assay: Navigating the Kinome. Panel member name: DYRK1B; assay type: functional
Sequence of Dual specificity tyrosine-phosphorylation-regulated kinase 1B (Q9Y463 whole entry): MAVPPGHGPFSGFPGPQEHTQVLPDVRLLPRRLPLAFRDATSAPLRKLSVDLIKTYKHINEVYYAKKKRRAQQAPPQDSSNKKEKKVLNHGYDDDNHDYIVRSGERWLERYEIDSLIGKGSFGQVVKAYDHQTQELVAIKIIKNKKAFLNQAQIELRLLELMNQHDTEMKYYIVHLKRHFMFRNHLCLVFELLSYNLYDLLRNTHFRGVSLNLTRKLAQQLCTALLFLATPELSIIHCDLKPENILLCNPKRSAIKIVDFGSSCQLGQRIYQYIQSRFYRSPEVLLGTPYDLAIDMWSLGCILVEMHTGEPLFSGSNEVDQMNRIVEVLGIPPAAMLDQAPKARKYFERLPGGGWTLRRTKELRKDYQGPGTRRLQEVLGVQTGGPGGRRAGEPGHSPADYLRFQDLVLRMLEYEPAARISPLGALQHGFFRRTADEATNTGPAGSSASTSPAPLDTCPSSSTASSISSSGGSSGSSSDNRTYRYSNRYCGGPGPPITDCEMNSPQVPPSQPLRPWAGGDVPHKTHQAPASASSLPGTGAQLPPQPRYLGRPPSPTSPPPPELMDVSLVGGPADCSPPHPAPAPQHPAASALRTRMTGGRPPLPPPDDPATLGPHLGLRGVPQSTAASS

[16] = molecular target: Tyrosine-protein kinase receptor TYRO3 (Homo sapiens, UniProt Q06418); assay type: functional;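 note: TYRO3 value obtained as one member of a kinome-wide profiling panel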
[17] = molecular target: Serine/threonine-protein kinase Chk1 (Homo sapiens, UniProt O14757); assay type: functional;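 note: measured as one member of a kinome-wide kinase profiling panel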
Sequence of Serine/threonine-protein kinase Chk1 (O14757 whole entry): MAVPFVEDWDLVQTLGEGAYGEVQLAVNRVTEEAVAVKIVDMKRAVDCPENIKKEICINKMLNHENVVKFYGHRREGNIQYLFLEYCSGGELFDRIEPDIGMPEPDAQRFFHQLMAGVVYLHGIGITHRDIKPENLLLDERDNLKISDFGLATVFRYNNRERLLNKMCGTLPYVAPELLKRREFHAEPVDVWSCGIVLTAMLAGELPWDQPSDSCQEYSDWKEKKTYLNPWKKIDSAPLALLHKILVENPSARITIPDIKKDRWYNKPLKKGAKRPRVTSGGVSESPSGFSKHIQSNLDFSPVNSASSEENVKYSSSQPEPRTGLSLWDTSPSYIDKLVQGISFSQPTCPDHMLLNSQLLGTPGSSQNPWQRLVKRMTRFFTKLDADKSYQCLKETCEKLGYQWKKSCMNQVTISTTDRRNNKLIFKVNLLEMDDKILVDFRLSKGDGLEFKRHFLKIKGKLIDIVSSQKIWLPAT

[18] = molecular target: Death-associated protein kinase 3 (Homo sapiens, UniProt O43293); assay type: functional;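 note: measured as one member of a kinome-wide profiling panel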
[19] = molecular target: Leucine-rich repeat serine/threonine-protein kinase 2 (Homo sapiens, UniProt Q5S007); assay type: functional;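 note: value from a broad kinome-wide panel profiling study in which LRRK2 was one of the kinases tested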
[20] = molecular target: Inhibitor of nuclear factor kappa-B kinase subunit epsilon (Homo sapiens, UniProt Q14164); assay: Navigating the Kinome. Panel member name: IKBKE; assay type: functional
Sequence of Inhibitor of nuclear factor kappa-B kinase subunit epsilon (Q14164 whole entry): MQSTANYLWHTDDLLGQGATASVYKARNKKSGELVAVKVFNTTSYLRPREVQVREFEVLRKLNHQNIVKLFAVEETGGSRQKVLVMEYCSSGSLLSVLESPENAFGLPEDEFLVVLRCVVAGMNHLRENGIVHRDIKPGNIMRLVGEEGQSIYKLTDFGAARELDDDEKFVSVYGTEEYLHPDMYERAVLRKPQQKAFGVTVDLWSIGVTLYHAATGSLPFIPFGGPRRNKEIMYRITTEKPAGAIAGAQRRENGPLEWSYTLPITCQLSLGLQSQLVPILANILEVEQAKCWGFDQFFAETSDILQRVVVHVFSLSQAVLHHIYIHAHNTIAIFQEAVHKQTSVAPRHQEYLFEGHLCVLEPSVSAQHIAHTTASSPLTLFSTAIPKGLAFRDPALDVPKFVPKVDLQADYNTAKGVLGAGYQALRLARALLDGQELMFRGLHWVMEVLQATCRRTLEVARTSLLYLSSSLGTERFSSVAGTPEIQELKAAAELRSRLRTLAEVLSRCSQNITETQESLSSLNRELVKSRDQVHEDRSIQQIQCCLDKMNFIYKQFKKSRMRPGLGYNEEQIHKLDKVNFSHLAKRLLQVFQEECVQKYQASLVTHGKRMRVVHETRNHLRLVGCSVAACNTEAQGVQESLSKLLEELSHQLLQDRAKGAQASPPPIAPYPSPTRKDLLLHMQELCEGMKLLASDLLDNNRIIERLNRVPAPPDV

[21] = molecular target: Cyclin-dependent kinase 8 (Homo sapiens, UniProt P49336); assay: Navigating the Kinome. Panel member name: CDK8; assay type: functional
Sequence of Cyclin-dependent kinase 8 (P49336 whole entry): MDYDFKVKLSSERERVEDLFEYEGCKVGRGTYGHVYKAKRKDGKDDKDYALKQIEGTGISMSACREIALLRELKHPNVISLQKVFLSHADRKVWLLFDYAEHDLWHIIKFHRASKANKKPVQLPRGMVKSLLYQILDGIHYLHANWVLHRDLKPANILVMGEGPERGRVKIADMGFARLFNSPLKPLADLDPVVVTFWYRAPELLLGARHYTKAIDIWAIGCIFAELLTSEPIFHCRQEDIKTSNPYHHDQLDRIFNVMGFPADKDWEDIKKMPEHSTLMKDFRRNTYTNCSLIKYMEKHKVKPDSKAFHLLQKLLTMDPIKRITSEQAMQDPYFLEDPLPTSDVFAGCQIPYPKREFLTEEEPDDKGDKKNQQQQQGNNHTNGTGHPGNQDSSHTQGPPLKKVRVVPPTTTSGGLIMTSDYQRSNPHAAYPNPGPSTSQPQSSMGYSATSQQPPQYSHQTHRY

[22] = molecular target: Platelet-derived growth factor receptor beta (Homo sapiens, UniProt P09619); assay type: functional;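 note: value comes from a kinome panel, with PDGFRB tested as one panel member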
[23] = molecular target: Serine/threonine-protein kinase Nek2 (Homo sapiens, UniProt P51955); assay type: functional
[24] = molecular target: Vascular endothelial growth factor receptor 2 (Homo sapiens, UniProt P35968); assay type: functional
[25] = molecular target: Proto-oncogene tyrosine-protein kinase receptor Ret (Homo sapiens, UniProt P07949); assay type: functional;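 note: measured within a kinome-wide profiling panel, RET as the panel member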
[26] = molecular target: Dual specificity tyrosine-phosphorylation-regulated kinase 1A (Homo sapiens, UniProt Q13627); assay type: functional;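 note: measured against DYRK1A as one member of a broad kinome profiling panel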
LIM domain kinase 1 = LIM domain kinase 1 (Homo sapiens, UniProt P53667); assay: Navigating the Kinome. Panel member name: LIMK1; assay type: functional
[27] = molecular target: Mitogen-activated protein kinase kinase kinase kinase 2 (Homo sapiens, UniProt Q12851); assay type: functional;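 note: measured as one member of a kinome-wide kinase panel, with MAP4K2 as the panel entry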
[28] = molecular target: Calcium/calmodulin-dependent protein kinase type II subunit alpha (Homo sapiens, UniProt Q9UQM7); assay: Navigating the Kinome. Panel member name: CAMK2A; assay type: functional
[29] = molecular target: Casein kinase I isoform alpha (Homo sapiens, UniProt P48729); assay type: functional
Sequence of Casein kinase I isoform alpha (P48729 whole entry, canonical isoform): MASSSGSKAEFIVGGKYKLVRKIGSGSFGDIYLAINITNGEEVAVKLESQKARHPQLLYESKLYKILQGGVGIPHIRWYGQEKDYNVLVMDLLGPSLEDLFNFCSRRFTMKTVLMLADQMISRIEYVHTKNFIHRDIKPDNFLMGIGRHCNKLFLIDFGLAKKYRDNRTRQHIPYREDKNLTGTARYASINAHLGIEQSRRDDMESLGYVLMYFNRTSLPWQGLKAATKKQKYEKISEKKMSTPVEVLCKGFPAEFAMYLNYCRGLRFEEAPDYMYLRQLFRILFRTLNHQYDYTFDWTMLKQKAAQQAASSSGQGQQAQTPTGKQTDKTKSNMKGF

[30] = molecular target: Tyrosine-protein kinase ABL1 (Homo sapiens, UniProt P00519); assay type: functional
[31] = molecular target: T2, Ubiquitin-conjugating enzyme E2 N (Homo sapiens, UniProt P61088); assay type: functional
T2 sequence (P61088 whole entry): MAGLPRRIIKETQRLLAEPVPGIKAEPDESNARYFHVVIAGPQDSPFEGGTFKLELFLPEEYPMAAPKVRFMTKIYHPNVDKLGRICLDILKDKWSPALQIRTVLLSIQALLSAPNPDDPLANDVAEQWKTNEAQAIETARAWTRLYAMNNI

[32] = molecular target: T3, Small ubiquitin-related modifier 1 (Homo sapiens, UniProt P63165); assay: inhibitors of SUMO1 partner interactions, dose response, biochemical, FRET (AID 624383); assay type: functional; conditions: read-out: IC50_Mean
T3 sequence (P63165 whole entry): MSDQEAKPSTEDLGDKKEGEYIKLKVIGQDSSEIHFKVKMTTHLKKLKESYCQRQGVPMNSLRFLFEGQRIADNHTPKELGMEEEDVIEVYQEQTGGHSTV

INS1 = assay: beta cell apoptosis inhibitors, cytokine rescue, dose response, luminescence, retest (AID 449756); assay type: functional, cell-based; conditions: Rattus norvegicus;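 note: cell death triggered by IL-1 beta plus TNF-alpha plus IFN-gamma mixture; protective hits raise ATP signal compared with cytokine alone wells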
[33] = molecular target: T4, Apoptotic protease-activating factor 1 (Homo sapiens, UniProt O14727); assay type: functional
T4 sequence (O14727 whole entry): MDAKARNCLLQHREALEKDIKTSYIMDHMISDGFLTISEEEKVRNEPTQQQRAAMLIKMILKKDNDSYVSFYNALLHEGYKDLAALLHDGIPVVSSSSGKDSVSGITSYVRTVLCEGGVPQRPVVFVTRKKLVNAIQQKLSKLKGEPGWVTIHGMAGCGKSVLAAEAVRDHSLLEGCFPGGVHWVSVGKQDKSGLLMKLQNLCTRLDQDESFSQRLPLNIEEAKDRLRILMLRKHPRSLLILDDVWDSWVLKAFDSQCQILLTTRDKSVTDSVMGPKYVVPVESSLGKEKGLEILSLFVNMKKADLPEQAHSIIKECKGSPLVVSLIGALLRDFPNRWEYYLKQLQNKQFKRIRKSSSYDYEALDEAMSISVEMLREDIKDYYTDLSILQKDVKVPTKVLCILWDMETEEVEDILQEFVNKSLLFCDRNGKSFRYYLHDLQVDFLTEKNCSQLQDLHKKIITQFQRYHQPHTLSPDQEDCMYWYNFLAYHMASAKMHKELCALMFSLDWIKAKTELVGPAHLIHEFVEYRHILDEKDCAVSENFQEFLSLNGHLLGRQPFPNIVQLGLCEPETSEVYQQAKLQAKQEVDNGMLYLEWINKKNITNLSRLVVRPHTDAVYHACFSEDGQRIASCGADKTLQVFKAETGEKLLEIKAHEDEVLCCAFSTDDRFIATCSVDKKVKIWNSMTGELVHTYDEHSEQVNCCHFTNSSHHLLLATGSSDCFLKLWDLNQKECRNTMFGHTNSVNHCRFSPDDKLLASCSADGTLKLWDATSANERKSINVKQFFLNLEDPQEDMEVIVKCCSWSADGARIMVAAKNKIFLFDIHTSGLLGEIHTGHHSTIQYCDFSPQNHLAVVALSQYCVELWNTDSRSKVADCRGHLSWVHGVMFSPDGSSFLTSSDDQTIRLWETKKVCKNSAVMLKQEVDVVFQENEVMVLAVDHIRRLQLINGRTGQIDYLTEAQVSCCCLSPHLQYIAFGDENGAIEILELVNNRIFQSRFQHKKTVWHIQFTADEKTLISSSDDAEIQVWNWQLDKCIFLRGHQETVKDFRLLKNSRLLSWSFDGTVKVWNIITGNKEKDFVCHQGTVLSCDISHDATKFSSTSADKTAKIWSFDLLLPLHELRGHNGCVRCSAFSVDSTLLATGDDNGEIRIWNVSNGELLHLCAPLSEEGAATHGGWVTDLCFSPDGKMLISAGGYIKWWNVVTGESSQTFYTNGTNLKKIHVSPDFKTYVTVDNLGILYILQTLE

[34] = molecular target: 72 kDa type IV collagenase (Homo sapiens, UniProt P08253); assay: Dose Response validation of uHTS RPN11 inhibitor hits using a MMP-2 Fluorescence assay.; assay type: functional
Bcl-2-related protein A1 = molecular target: T5, Bcl-2-related protein A1 (Mus musculus, UniProt Q07440); assay type: functional;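 note: confirmatory dose–response counterscreen on Bfl-1, used to check hits from a UBC13 polyubiquitin inhibitor campaign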
T5 sequence (Q07440 whole entry): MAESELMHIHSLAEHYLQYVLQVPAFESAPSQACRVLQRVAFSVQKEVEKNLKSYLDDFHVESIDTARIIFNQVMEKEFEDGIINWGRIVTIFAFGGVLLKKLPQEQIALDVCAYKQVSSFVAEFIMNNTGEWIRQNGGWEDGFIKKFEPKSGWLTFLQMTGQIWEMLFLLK

[35] = molecular target: T4, Apoptotic protease-activating factor 1; assay: SAR analysis of small molecule inhibitors of Apaf-1 in a Fluorescent assay.; assay type: functional; conditions: read-out: IC50_Mean
[36] = molecular target: T3, Small ubiquitin-related modifier 1; assay: inhibitors of SUMO1 peptide binding, dose response, biochemical, fluorescence polarization, uHTS hits (AID 624382); assay type: functional; conditions: read-out: IC50_Mean
[37] = microbe, parasite or virus in culture; assay type: functional; conditions: Mycobacterium tuberculosis
[38] = molecular target: 26S proteasome non-ATPase regulatory subunit 14 (Homo sapiens, UniProt O00487); assay: inhibition of proteasome subunit RPN11 – biochemical, fluorescence polarization, uHTS hits, confirmation (AID 602368); assay type: functional
Sequence of 26S proteasome non-ATPase regulatory subunit 14 (O00487 whole entry): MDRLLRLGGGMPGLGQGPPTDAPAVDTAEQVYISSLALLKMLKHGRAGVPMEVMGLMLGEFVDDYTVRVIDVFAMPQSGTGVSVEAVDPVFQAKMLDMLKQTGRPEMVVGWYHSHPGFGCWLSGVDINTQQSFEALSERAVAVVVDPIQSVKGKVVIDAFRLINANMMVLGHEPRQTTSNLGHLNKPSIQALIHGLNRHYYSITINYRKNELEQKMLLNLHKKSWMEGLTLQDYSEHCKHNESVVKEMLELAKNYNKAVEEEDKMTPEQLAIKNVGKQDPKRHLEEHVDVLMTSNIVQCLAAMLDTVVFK

[39] = molecular target: T6, Rac GTPase-activating protein 1 (Homo sapiens, UniProt Q9H0H5); assay: MgcRacGAP GTPase-activating activity inhibitors, confirmation, biochemical, ADP Hunter fluorescence, primary and confirmatory (AID 624330); assay type: functional
T6 sequence (Q9H0H5 whole entry): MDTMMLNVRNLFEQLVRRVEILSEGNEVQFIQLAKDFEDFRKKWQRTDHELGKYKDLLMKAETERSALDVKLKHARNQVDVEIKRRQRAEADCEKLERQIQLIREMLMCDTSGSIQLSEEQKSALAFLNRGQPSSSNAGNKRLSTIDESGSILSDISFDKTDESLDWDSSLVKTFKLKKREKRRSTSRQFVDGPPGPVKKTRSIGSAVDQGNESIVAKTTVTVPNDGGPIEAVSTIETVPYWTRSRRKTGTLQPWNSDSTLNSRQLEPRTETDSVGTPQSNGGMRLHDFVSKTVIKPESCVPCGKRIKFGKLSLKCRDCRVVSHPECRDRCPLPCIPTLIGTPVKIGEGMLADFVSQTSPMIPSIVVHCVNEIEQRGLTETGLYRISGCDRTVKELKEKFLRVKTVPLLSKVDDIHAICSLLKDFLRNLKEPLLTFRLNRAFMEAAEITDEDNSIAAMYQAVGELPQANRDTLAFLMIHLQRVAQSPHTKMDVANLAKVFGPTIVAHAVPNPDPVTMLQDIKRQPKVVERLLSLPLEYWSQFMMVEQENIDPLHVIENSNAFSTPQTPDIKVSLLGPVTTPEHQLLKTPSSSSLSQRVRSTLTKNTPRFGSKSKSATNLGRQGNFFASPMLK

[40] = molecular target: T2, Ubiquitin-conjugating enzyme E2 N; assay type: functional; remark: listed apart in the source
Prothrombin = Prothrombin (Bos taurus, UniProt P00735); assay: thrombin inhibition, dose response, biochemical, fluorescence polarization, uHTS hits (AID 602369); assay type: functional

CCOCCSc1nc2c(c(-c3cccs3)c1C#N)CC/C2=C/c1cccs1
EC50 [1]: 17.8 µM (active)
EC50 [2]: 6.4 µM (active)
EC50 (Lethal factor): 16.7 µM (active)
EC50 [3]: 8 µM (active)

CC1=CN2CC(=O)NN=C2C=C1
Ki (Aurora kinase B): 79.4 µM (active)
Ki [4]: > 100 µM (inactive)
Ki [5]: 100 µM (active)
Ki (Focal adhesion kinase 1): 79.4 µM (active)
Ki (Aurora kinase A): 31.6 µM (active)
Ki [6]: > 50.1 µM (inactive)
Ki [7]: 50.1 µM (active)
Ki [8]: 3.16 µM (active)
Ki [9]: 79.4 µM (active)
Ki [10]: 31.6 µM (active)
Ki [11]: 50.1 µM (active)
Ki [12]: 79.4 µM (active)
Ki [13]: > 100 µM (inactive)
Ki [14]: 50.1 µM (active)
Ki [15]: 25.1 µM (active)
Ki [16]: 50.1 µM (active)
Ki [17]: 12.6 µM (active)
Ki [18]: 63.1 µM (active)
Ki [19]: 31.6 µM (active)
Ki [20]: 100 µM (active)
Ki [21]: 20 µM (active)
Ki [22]: > 79.4 µM (inactive)
Ki [23]: 20 µM (active)
Ki [24]: > 100 µM (inactive)
Ki [25]: 50.1 µM (active)
Ki [26]: 12.6 µM (active)
Ki (LIM domain kinase 1): 12.6 µM (active)
Ki [27]: 79.4 µM (active)
Ki [28]: 63.1 µM (active)
Ki [29]: 79.4 µM (active)
Ki [30]: 100 µM (active)

CCN(CC)CCOC(=O)c1ccc(N/C=C(/C#N)c2nc(-c3ccc4c(c3)OCO4)cs2)cc1
IC50 [31]: 5.07 µM (active)
IC50 [32]: 2.13 µM (active)
AC50 (INS1): 11 µM (active)
IC50 [33]: 20.7 µM (active)
IC50 [34]: > 100 µM (inactive)
IC50 (Bcl-2-related protein A1): 1.72 µM (active)
IC50 [35]: 6.43 µM (active)
IC50 [36]: > 66.6 µM (inactive)
CC50 [37]: > 40 µM (active)
IC50 [38]: 31.4 µM (active)
IC50 [39]: 120 µM (active)
IC50 [40]: 6.35 µM (active)
IC50 (Prothrombin): 56.1 µM (active)
